According to ChEMBL document CHEMBL3227967, “Quantitative structure-activity relationships in 1-aryl-2-(alkylamino)ethanol antimalarials” (J Med Chem, 1979):

What follows are compounds tested on Plasmodium berghei (assay: Antimalarial activity against Plasmodium berghei).
Assay type: functional

Row | Compound | log(1/C)
1 | CCN(CC)CC(O)c1cc2ccc(Cl)cc2nc1-c1ccc(Cl)cc1 (configuration not stated) | 2.11
2 | OC(CC1CCCCN1)c1cc2c(Cl)cc(Cl)cc2c2cc(C(F)(F)F)ccc12 (configuration not stated) | 4.1
3 | COc1ccc(-c2cc(C(O)CC3CCCCN3)c3ccccc3n2)cc1 (configuration not stated) | 2.53
4 | OC(CC1CCCCN1)c1cc2cc(Cl)ccc2c2ccccc12 (configuration not stated) | 2.56
5 | CCCC(CCC)NCC(O)c1cc(-c2ccc(C(F)(F)F)cc2)nc(C(F)(F)F)c1 (configuration not stated) | 4.47
6 | CC(C)(C)NCCC(O)c1cc2ccc(C(F)(F)F)cc2c2cc(C(F)(F)F)ccc12 (configuration not stated) | 4.73
7 | CCCCN(CCCC)CC(O)c1cc(C23CC4CC(CC(C4)C2)C3)nc2c(Cl)cc(Cl)cc12 (configuration not stated) | 3.29
8 | CCCCN(CCCC)CC(O)c1cc(-c2cc(OC)c(OC)c(OC)c2)nc2c1cc(Cl)c1ccccc12 (configuration not stated) | 3.32
9 | CCCCN(CCCC)CC(O)c1cc2cc(Cl)cc(Cl)c2nc1-c1ccc(Cl)cc1 (configuration not stated) | 2.32
10 | CCCCCCCN(CCCCCCC)CC(O)c1cc2c(Cl)cc(Cl)cc2c2cc(C(F)(F)F)ccc12 (configuration not stated) | 3.53
11 | CCCCCCN(CCCCCC)CC(O)c1cc(-c2ccc(Cl)cc2)nc2c(C)c(Cl)ccc12 (configuration not stated) | 3.85
12 | CCCCN(CCCC)CC(O)c1cc(C(=O)c2ccc(Cl)cc2)cc2c(Cl)cc(Cl)cc12 (configuration not stated) | 2.66
13 | OC(CN1CCCCC1)c1cc(-c2ccc(F)cc2)nc2cc(F)ccc12 (configuration not stated) | 2.45
14 | CCCCCCCN(CCCCCCC)CC(O)c1cc2cc(Cl)ccc2c2ccccc12 (configuration not stated) | 3.09
15 | CCCCN(CCCC)CC(O)c1c2cccc(Cl)c2cc2c(Cl)cccc12 (configuration not stated) | 2.76
16 | CCCCN(CCCC)CC(O)c1cc2ccsc2c2ccccc12 (configuration not stated) | 2.38
17 | CCCCN(CCCC)CC(O)c1cc(-c2ccc(Cl)cc2)nc2c(Cl)cc(Cl)cc12 (configuration not stated) | 4.03
18 | CCCCCN(CCCCC)CC(O)c1cccc2c1ccc1ccccc12 (configuration not stated) | 2.33
19 | CCCCN(CCCC)CC(O)c1c(C)c(-c2ccc(Cl)cc2)nc2c(Cl)cc(Cl)cc12 (configuration not stated) | 3.06
20 | CCC(C)N(C)CC(O)c1cc(-c2ccc(Cl)cc2)nc(-c2ccc(Cl)cc2)c1 (configuration not stated) | 3.59
21 | CCCCCCCN(CCCCCCC)CC(O)c1cc2sccc2c2ccsc12 (configuration not stated) | 2.58
22 | CCCCN(CCCC)CC(O)c1ccc(Cl)c2ncccc12 (configuration not stated) | 2.16

Row | Compound | log(1/C)
23 | CCCCN(CCCC)CC(O)c1cc(-c2ccc(C(F)(F)F)cc2)nc(-c2ccc(C(F)(F)F)cc2)c1 (configuration not stated) | 4.09
24 | CCCCN(CCCC)CC(O)c1cc2ccccc2c2ccc(Cl)cc12 (configuration not stated) | 2.51
25 | Cc1cc(C)c2nc(Oc3ccc(Cl)cc3)cc(C(O)CC3CCCCN3)c2c1 (configuration not stated) | 2.72
26 | CCN(CC)CC(O)c1cc2cc(Cl)ccc2c2cc(Cl)ccc12 (configuration not stated) | 4.06
27 | CN(C)CC(O)c1cc(-c2ccc(Cl)cc2)nc(-c2ccc(Cl)cc2)c1 (configuration not stated) | 3.18
28 | CCCCN(CCCC)CCC(O)c1cc2ccc(C(F)(F)F)cc2c2cc(C(F)(F)F)ccc12 (configuration not stated) | 4.03
29 | CCCCCCN(CCCCCC)CC(O)c1cc(-c2ccc(OC)c(OC)c2)nc2cc(Cl)ccc12 (configuration not stated) | 3.32
30 | CCCCN(CCCC)CC(O)c1cc(-c2ccccc2)nc(-c2ccc(Cl)cc2)c1 (configuration not stated) | 2.91
31 | OC(CC1CCCCN1)c1cc2ccc(C(F)(F)F)cc2c2c(Cl)cc(Cl)cc12 (configuration not stated) | 4.3
32 | COc1cc(C(F)(F)F)c2nc(C(F)(F)F)cc(C(O)CC3CCCCN3)c2c1 (configuration not stated) | 3.98
33 | CCCCCCCN(CCCCCCC)CC(O)c1cccc2cc3cccc(Cl)c3cc12 (configuration not stated) | 2.36
34 | CCCCCCN(CCCCCC)CC(O)c1cc(-c2ccc(Cl)cc2)nc2c(C)cc(C)cc12 (configuration not stated) | 3.75
35 | OC(CC1CCCCN1)c1cc2ccc(C(F)(F)F)cc2c2cc(Cl)ccc12 (configuration not stated) | 4.25
36 | CCCCN(CCCC)CC(O)c1cc(-c2ccc(Cl)c(Cl)c2)nc2c(Cl)cc(Cl)cc12 (configuration not stated) | 4.21
37 | CCCCN(CCCC)CC(O)c1cc2c(Cl)cc(Cl)cc2c2cc(C)sc12 (configuration not stated) | 3.3
38 | COc1cc2c(C(O)CC3CCCCN3)cc(-c3ccc(Cl)cc3)cc2cc1Cl (configuration not stated) | 3
39 | CCCCN(CCCC)CC(O)c1cc(C2(C)CCCC2)nc2c(Cl)cc(Cl)cc12 (configuration not stated) | 2.66
40 | CCCCCCCN(CCCCCCC)CC(O)c1cc2c(Br)cccc2c2cc(C(F)(F)F)ccc12 (configuration not stated) | 3.43
41 | OC(CC1CCCCN1)c1cc(-c2ccccc2)nc2ccccc12 (configuration not stated) | 2.37
42 | Cc1cccc2c(C(O)CC3CCCCN3)cc(C(F)(F)F)nc12 (configuration not stated) | 2.93
43 | CC1CCCNC1CC(O)c1cc(-c2ccccc2)nc2cc(Cl)ccc12 (configuration not stated) | 3.52
44 | CCCCCCCN(CCCCCCC)CCC(O)c1cc2ccccc2c2ccccc12 (configuration not stated) | 3

Row | Compound | log(1/C)
45 | CCCCCCCN(CCCCCCC)CC(O)c1cc2c(Cl)cc(Cl)cc2c2ncccc12 (configuration not stated) | 2.86
46 | CC(C)(C)NCC(O)c1cc2ccc(Br)cc2c2cc(Br)ccc12 (configuration not stated) | 3.61
47 | CCCCN(CCCC)CC(O)c1cc(-c2ccc(Cl)cc2)nc2cc(I)ccc12 (configuration not stated) | 3.43
48 | COc1cc2c(C(O)CC3CCCCN3)cc(-c3ccc(Cl)c(Cl)c3)cc2cc1Cl (configuration not stated) | 3.14
49 | OC(CC1CCCCN1)c1cc2cc3c(cc2c2cc(Cl)ccc12)OCO3 (configuration not stated) | 3.14
50 | CCCCN(CCCC)CC(O)c1cc2ccc(Cl)cc2c2cc(Cl)ccc12 (configuration not stated) | 3.79
51 | OC(CC1CCCCN1)c1cc2ccc(Cl)cc2c2cc(Cl)c(Cl)cc12 (configuration not stated) | 3.86
52 | CCCCN(CCCC)CC(O)c1cc(-c2ccc(Cl)cc2)nc2cc3c(cc12)OCO3 (configuration not stated) | 2.99
53 | CCCCCCCCN(CCCCCCCC)CC(O)c1ccnc2ccccc12 (configuration not stated) | 2.44
54 | OC(CC1CCCCN1)c1cc2cc(C(F)(F)F)cc(C(F)(F)F)c2c2ccc(Cl)cc12 (configuration not stated) | 4.82
55 | CCCCCCCN(CCCCCCC)CC(O)c1c(Br)c2ccccc2c2cc(Br)ccc12 (configuration not stated) | 3.42
56 | CCCCCCN(CCCCCC)CC(O)c1cccc2c1cc(Br)c1ccccc12 (configuration not stated) | 2.77
57 | CCCN(CCC)CC(O)c1cc(-c2ccc(Cl)cc2)nc(-c2ccc(Cl)cc2)c1 (configuration not stated) | 3.3
58 | CCCCN(CCCC)CC(O)c1c(Cl)cc(Cl)c2nc(-c3ccc(Cl)cc3)ccc12 (configuration not stated) | 3.6
59 | CCCCN(CCCC)CC(O)c1cc(-c2ccc(Cl)cc2)nc2ccc(F)cc12 (configuration not stated) | 3.11
60 | CCCCN(CCCC)CC(O)c1cc(C(=O)c2ccccc2)nc2c(Cl)cc(Cl)cc12 (configuration not stated) | 3.03
61 | CCCCN(CCCC)CC(O)c1cc(-c2ccc(OC)cc2)nc(-c2ccc(Cl)c(Cl)c2)c1 (configuration not stated) | 2.68
62 | CCCCN(CCCC)CC(O)c1cc(Oc2ccc(Cl)cc2)c(Br)c2cc(Cl)ccc12 (configuration not stated) | 2.62
63 | OC(CC1CCCCN1)c1cc2cc(Cl)ccc2c2c(Cl)cc(Cl)cc12 (configuration not stated) | 4.29
64 | OC(CN1CCCCC1)c1cc(-c2ccc(Cl)cc2)nc2c(Cl)cc(Cl)cc12 (configuration not stated) | 3.49
65 | OC(CNC12CC3CC(CC(C3)C1)C2)c1cc(-c2ccc(Cl)cc2)nc2cc(Cl)ccc12 (configuration not stated) | 3.24
66 | CCCCN(CCCC)CC(O)c1cc2cc(Br)c(Br)cc2c2cc(C(F)(F)F)ccc12 (configuration not stated) | 4.31

Row | Compound | log(1/C)
67 | Cc1cc(C)c2nc(-c3ccc(Cl)cc3)cc(C(O)CC3CCCCN3)c2c1 (configuration not stated) | 4.04
68 | CC(C)CCCN(CCC(C)C)CC(O)c1cc(-c2ccc(C(F)(F)F)cc2)nc(C(F)(F)F)c1 (configuration not stated) | 3.04
69 | CCCCCCCN(CCCCCCC)CC(O)c1cc2ccc(C(F)(F)F)cc2c2ccsc12 (configuration not stated) | 2.69
70 | OC(CC1CCCCN1)c1cc2ccccc2c2c(Cl)cc(Cl)cc12 (configuration not stated) | 3.52
71 | CCCCN(CCCC)CCC(O)c1cc(-c2ccc(Cl)c(Cl)c2)nc2c(Cl)cc(Cl)cc12 (configuration not stated) | 4.67
72 | CCN(CC)CC(O)c1cc(-c2ccc(Cl)c(Cl)c2)nc2cc(OC)ccc12 (configuration not stated) | 3.32
73 | CCCCCCN(CCCCCC)CC(O)c1cc(-c2cccc(C(F)(F)F)c2)nc2c(Cl)cc(Cl)cc12 (configuration not stated) | 3.32
74 | CCCCN(CCCC)CC(O)c1c(Br)c2ccccc2c2cc(Br)ccc12 (configuration not stated) | 3.23
75 | CCCCN(CCCC)CC(O)c1cc(/C=C/c2ccc(C(F)(F)F)cc2)nc(C(=O)c2ccc(C(F)(F)F)cc2)c1 (configuration not stated) | 3.91
76 | CCNCC(O)c1cc(-c2ccc(C(F)(F)F)cc2)nc(-c2ccc(C(F)(F)F)cc2)c1 (configuration not stated) | 3.72
77 | OC(CC1CCCCN1)c1cc(C(F)(F)F)nc2c(C(F)(F)F)cccc12 (configuration not stated) | 4.41
78 | Cc1cc(C)c2nc(-c3ccc(F)cc3)cc(C(O)CC3CCCCN3)c2c1 (configuration not stated) | 3.61
79 | CCCCN(CCCC)CC(O)c1cc(-c2ccc(OC)c(OC)c2)nc2ccc(Cl)cc12 (configuration not stated) | 3.33
80 | CCCCCCCN(CCCCCCC)CC(O)c1cc2ccc(Cl)cc2c2cc(C(F)(F)F)ccc12 (configuration not stated) | 3.61
81 | OC(CNC1CC1)c1cc(-c2ccc(Cl)c(Cl)c2)nc2c(Cl)cc(Cl)cc12 (configuration not stated) | 3.6
82 | CCCCN(CCCC)CC(O)c1cc2ccccc2c2cc(C(F)(F)F)ccc12 (configuration not stated) | 3.23
83 | CCCCN(CCCC)CC(O)c1cc2cc(Cl)ccc2c2cc(C(F)(F)F)ccc12 (configuration not stated) | 3.69
84 | CCCC(C)NCC(O)c1cc(-c2ccc(C(F)(F)F)cc2)nc(-c2ccc(C(F)(F)F)cc2)c1 (configuration not stated) | 4.44
85 | OC(CC1CCCCN1)c1cc2cc(Cl)c(Cl)cc2c2cc(Br)ccc12 (configuration not stated) | 3.91
86 | CCCCN(CCCC)CC(O)c1cc(C23CC4CC(CC(C4)C2)C3)nc2ccc(Cl)cc12 (configuration not stated) | 3.05
87 | CCCCN(CCCC)CC(O)c1cc2cc(Cl)cc(Cl)c2c2cc(C(F)(F)F)ccc12 (configuration not stated) | 3.74
